Patent publication US11779597B2, “Method of treating Parkinson's and other neurodegenerative diseases” (Vector Vitale IP LLC, priority 2019, dated 2023)

Assays:
[1] = system: microglia; test: Functional profile of microglia in 6-OHDA rat models after prophylactic administration; type: in vivo; conditions: prophylactic i.p.
Protocol: Methods: Adult mature rodents were used in the study. […] Before prophylactic administration of the experimental drugs, the animals underwent an open field test to assay their general locomotor activity levels and anxiety. The prophylactic course consisted of 10 daily intraperitoneal injections of the drugs (in the case of combination drug, its components were administered at an interval of 2 hours). After the end of prophylactic course, Parkinson's disease was modelled in the animals. […] Ten days after the last (second) apomorphine test, the animals' behavioral responses were assessed in the open field test followed by euthanasia and analysis of functional (metabolic and phenotypic) profiles of phagocytes of different localization. Thus, the study of the functional profile of phagocytes in rat models of Parkinson's disease was performed on day 28 after the end of the course of prophylactic treatment with the experimental drugs. Resident peritoneal macrophages were isolated from sterile cell suspension of peritoneal exudate; enrichment of the suspension was carried out by 2-hour adhesion. Non-adherent and dead cells were separated by centrifugation. Functional characteristics of circulating phagocytes (monocytes and neutrophils) were evaluated in whole blood taken into a tube containing EDTA used as an anticoagulant. Mononuclear and polymorphonuclear phagocytes were analyzed on a flow cytofluorimeter using a gating method. Phagocytes of microglia were isolated using a Percoll density gradient. To assess the phenotypic profile of phagocytes, expression indices of the pan-phagocytic marker CD14 (co-receptor of the bacterial lipopolysaccharide) and the marker of alternative polarization of phagocytes CD206 (mannose receptor 1) were used. To characterize the metabolic profile, oxidative metabolism and phagocytic activity of microglia as well as the pathway of arginine metabolism were studied using flow cytometry and spectrometric methods respectively. FITC-labeled Staphylococcus aureus Wood 46 was used as the object of phagocytosis. The hemogram parameters were analyzed on the hematological analyzer Particle counter model PCE 210 (ERMA, Japan) adapted for the study of blood cells of rats and mice.

[2] = system: rat peripheral blood monocytes; test: Metabolic profile of nonsensitized rat peripheral blood monocytes in vitro; type: cell-based
Protocol: Materials and methods: Rat microglial cells were isolated by mechanical (cell sieves) disintegration of the brain tissue (FIG. 30A, FIG. 30B and FIG. 30C) followed by fractionation of the tissue homogenate in Percoll density gradient (Microglia: Methods and Protocols, Edited by Bertrand Josef and Jose Luis Venero, Springer protocol. Humana Press, 2013, 350 p.) (FIG. 31). Before the collection of the brain tissue, decapitation was performed to avoid hemorrhage to the brain during sampling (FIG. 32). Decapitation was performed immediately after anesthesia to minimize the death of brain tissue, including microglial cells. All manipulations for the isolation of microglial cells were carried out using coolants. Circulating neutrophils were isolated from venous blood taken into a tube containing EDTA in a two-step Percoll gradient (Alsharif K F et al. Vascul Pharmacol. 2015 August; 71:201-7. doi: 10.1016/j.vph.2015.02.006)(FIG. 33A and FIG. 33B). Circulating monocytes were isolated from venous blood collected into a tube containing heparin in a two-step Hypaque gradient (Macrophages and dendritic cells: Methods and Protocols, Edited by Neil E. Reiner, NY, Humana Press, 2009: 368 P). The metabolic profile of phagocytes was characterized based on the pathway of arginine metabolism (levels of arginase activity and NO synthesis measured using photocolorimetric methods), the level of formation of intracellular reactive oxygen species (ROS) by esterases and the indices of phagocytic activity determined by flow cytofluorimetry, as well as according to the activation levels of NADH and NADPH oxidases determined in NBT test. Duration of treatment of phagocytes of all the above mentioned populations varied depending on the methodological characteristics of metabolic response. A 90 minute exposure to the drugs according to Kim et al., 1977 (cited above) was used to analyze their effects on oxidative metabolism and phagocytic activity. An 18 hour exposure according to Lastra et al., 2001 (cited above) was used to analyze the drug effects on arginine metabolic pathway. To analyze the effects of the drugs under study on the induced (stimulated) metabolic activity of phagocytes, the cells were treated with lipopolysaccharide (LPS) from E. coli (Sigma, USA) according to Haddad et al., 2009 (cited above).

[3] = system: circulating monocytes and granulocytes; test: Functional and phenotypic properties of circulating phagocytes in LPS rat models; type: in vivo; conditions: animal models of PD
Protocol: On the 1st day of the experiment, rats were either operated to model hemi-parkinsonism or sham operated. From the 9th to the 18th day of the experiment, the animals were injected either deuterium-depleted water or the test substance, according to their allocation into groups, for 10 days. On the 8th day of the experiment (before initiation of treatment—apomorphine test I) and on the 21st day of the experiment (after the end of administering the test substance —apomorphine test II) the animals underwent an apomorphine test to analyze the development of hemi-parkinsonism which correlates with the number of destroyed dopaminergic neurons. In addition, a follow-up analysis of fecal water content was carried out, i.e., before the start of treatment on the 8th day after the operation, as well as on the 21st (after the end of treatment) and the 28th day (before autopsy). On the 24th day of the experiment, behavioral tests were carried out in all groups. All animals were weighed before autopsy. […]
To assess the anti-inflammatory and immunomodulating effects of the test substance, microglia and peritoneal macrophages were isolated. Phenotypic and functional features of peripheral blood phagocytes were evaluated without their fractioning (using whole blood). […]
Phagocytic activity of microglia, peritoneal macrophages and peripheral blood phagocytes was analyzed on a flow cytometer using FITC-labeled S. aureus Wood 46 cells as an object of phagocytosis. […]
Oxidative metabolism of phagocytes of various localization was analyzed by flow cytometry using the cell-permeant 2′7′-dichlorodihydrofluorescein-diacetate (DHP) (carboxy-H2DCFDA, Invitrogen, USA) which is converted by intracellular esterases to the nonfluorescent membrane-impermeable carboxy-H2DCF form.
The phenotypic profile of phagocytes of various localization was characterized by the expression of markers of functional maturity and metabolic polarization (CD206, CD80 and CD86), which was determined by flow cytometry and the use of monoclonal antibodies of appropriate specificity marked with fluorescent dyes (Abcam, Becton Dickinson).

Question: Which “level of CD14 expression in microglia” value [1] does the source give for “^64Zn-enriched zinc aspartate [^64Zne-asp]” here?
Answer: The value was “increase”.

Question: What about the “level of CD206 expression in microglia” value [1] of the same substance?
Answer: The value was “increase”.

Question: What about the “oxidative metabolism / ROS production of microglia versus intact animals” value [1] of the same substance?
Answer: Its value is “at the level of control intact animals”.

Question: What about the “oxidative metabolism of microglia, higher than in control rat models of Parkinson's disease” value [1] of the same substance?
Answer: The value was “twice”.

Question: What about the “LPS-stimulated oxidase-dependent respiratory burst of monocytes” value [2] of the same substance?
Answer: Its value is “no effect”.

Question: And the “production of nitric oxide by monocytes treated with LPS” value [2]?
Answer: The value was “moderately increased”.

Question: What about the “spontaneous esterase-dependent intracellular ROS production by monocytes” value [2] of the same substance?
Answer: The value was “decrease”.

Question: What about the “intracellular ROS production by bacterial LPS-treated monocytes” value ([2]; 10 μg/ml) of the same substance?
Answer: Its value is “statistically significantly reduced”.

Question: And the “spontaneous oxidative metabolism dependent on NADH and NADPH oxidases (NBT test) in monocytes” value ([2]; 10 μg/ml)?
Answer: Its value is “slightly increased”.

Question: And the “phagocytic activity of monocytes” value ([2]; concentrations ≤5 μg/ml)?
Answer: The value was “reduced”.

Question: What about the “spontaneous production of nitrites by nonsensitized circulating monocytes” value ([2]; regardless of the concentration) of the same substance?
Answer: The value was “did not change significantly”.

Question: And the “arginase activity of monocytes” value ([2]; resting cells and bacterial LPS-treated cells)?
Answer: The value was “absent”.

Question: And the “expression levels of all three markers (CD206, CD80, CD86) by circulating phagocytes” value [3]?
Answer: Its value is “increase”.

Question: And the “functional reserve of oxidative metabolism of circulating phagocytes” value [3]?
Answer: Its value is “restore”.

Question: And the “oxidative metabolism of circulating phagocytes of both populations” value [3]?
Answer: The value was “sharply reduced”.
